TGI and GI50 data for 15 compounds are collected here from PubChem BioAssay (NCI).

Test systems include SN12C renal; HOP-92 NSCLC; MOLT-4 leukemia; HS 578T breast; OVCAR-4 ovarian; RXF 393 renal.
Holding throughout (assay): inhibition of tumour cell growth, NCI panel, 48 h

“And” between values parts separate entries of the source, which are not always exact repeats. Identical values can stand only once.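 Following 48 hours of exposure in 96-well plates, responses at five concentrations were used to interpolate endpoints linearly. Abbreviation: GI50, concentration required for 50% inhibition of growth. The concentration for full growth arrest is given as TGI.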

With `Nc1nc(N)[n+]([O-])c(N)c1NCO`, the TGI with SN12C renal, with HOP-92 NSCLC, in the assay with MOLT-4 leukemia, with HS 578T breast, with OVCAR-4 ovarian and in the assay with RXF 393 renal was greater than 100 µM throughout.

`O=C1C2CC(Cl)C(SSC3CC4C(=O)N(SC(Cl)(Cl)C(Cl)Cl)C(=O)C4CC3Cl)CC2C(=O)N1SC(Cl)(Cl)C(Cl)Cl` (stereo not drawn): the TGI in the assay on SN12C renal was 5.24 µM; in the assay on HOP-92 NSCLC it was 3 µM; with MOLT-4 leukemia, 1.35 µM; in the assay on HS 578T breast, greater than 22.8 µM; in the assay on OVCAR-4 ovarian, 4.31 µM; in the assay with RXF 393 renal, 3.17 µM.

On to `Cc1cc2c(C)c3cc(C)c(N)cc3nc2cc1N`, for which the GI50 in the assay on SN12C renal is 0.987 µM; in the assay with HOP-92 NSCLC, 1.54 µM; in the assay with MOLT-4 leukemia, 0.43 µM; in the assay with HS 578T breast it was 1.64 µM; in the assay with OVCAR-4 ovarian, 1.1 µM; in the assay on RXF 393 renal, 1.16 µM. Besides, the TGI in the assay with SN12C renal came to 9.71 µM; in the assay on HOP-92 NSCLC, 5.13 µM; with MOLT-4 leukemia, 6.23 µM; in the assay with HS 578T breast, 7.95 µM; with OVCAR-4 ovarian, 3.92 µM; in the assay on RXF 393 renal, 4.42 µM.

On to `C[C@@H](c1ccc2nccn2c1)n1nnc2ncc(-c3cnn(C)c3)nc21`, for which the GI50 in the assay on SN12C renal is greater than 100 µM; in the assay with HOP-92 NSCLC it was 58 µM; in the assay on MOLT-4 leukemia, greater than 100 µM; in the assay on HS 578T breast, greater than 100 µM; with OVCAR-4 ovarian, 65.1 µM; in the assay with RXF 393 renal, greater than 100 µM. The TGI in the assay on SN12C renal, with HOP-92 NSCLC, in the assay on MOLT-4 leukemia, in the assay with HS 578T breast, in the assay with OVCAR-4 ovarian and in the assay with RXF 393 renal was greater than 100 µM in each case.

For the compound `Cc1ccc2c(c1)NC(c1ccc(C(=O)O)cc1)c1cccn1-2` (stereo not drawn), the TGI is greater than 100 µM with SN12C renal, greater than 100 µM in the assay on MOLT-4 leukemia, 64 µM in the assay on OVCAR-4 ovarian and 50.2 µM with RXF 393 renal.

For `COc1cc(-c2cc(C(=O)N3CCN(C(=O)c4ccccc4NCc4ccco4)CC3)nc3cc(-c4ccccc4)nn23)cc(OC)c1OC`, the GI50 in the assay on SN12C renal was 6.7 µM; in the assay with MOLT-4 leukemia, 11.2 µM; in the assay with HS 578T breast it was 3.1 µM; in the assay on OVCAR-4 ovarian, greater than 26.1 µM; with RXF 393 renal, 1.53 µM. For the same compound, the TGI in the assay with SN12C renal is greater than 100 µM; with MOLT-4 leukemia, greater than 100 µM; in the assay with HS 578T breast it was greater than 29.3 µM; in the assay with OVCAR-4 ovarian, greater than 100 µM; in the assay with RXF 393 renal, 4.17 µM.

`O=S(=O)(c1ccc(NC(=S)N/N=C/c2ccccc2O)cc1)N1CCCCC1`: the TGI in the assay on SN12C renal was 3.92 µM; in the assay on HOP-92 NSCLC it was 66.1 µM; with MOLT-4 leukemia, 2.13 µM; with HS 578T breast it was 40.5 µM; in the assay with OVCAR-4 ovarian it was greater than 71.4 µM; with RXF 393 renal it was greater than 100 µM.

Regarding `Nc1cccc2c1C(=O)N(C1CCC(=O)NC1=O)C2=O` (stereo not drawn), the GI50 in the assay with SN12C renal, in the assay on HOP-92 NSCLC, with MOLT-4 leukemia, in the assay with HS 578T breast, in the assay with OVCAR-4 ovarian and in the assay with RXF 393 renal was greater than 100 µM throughout. Moreover, the TGI in the assay with SN12C renal, with HOP-92 NSCLC, in the assay on MOLT-4 leukemia, in the assay on HS 578T breast, in the assay with OVCAR-4 ovarian and with RXF 393 renal was greater than 100 µM each time.

Consider `COc1cccc(NC(=O)c2sc3nc4c(cc3c2N)CCCC4)c1`, for which the GI50 in the assay on SN12C renal is 3.98 µM; in the assay with HOP-92 NSCLC, 0.598 µM; in the assay on MOLT-4 leukemia, 0.765 µM; with HS 578T breast it was 0.75 µM; with OVCAR-4 ovarian it was 0.998 µM; with RXF 393 renal, 0.365 µM. Further, the TGI is greater than 100 µM with SN12C renal; 24.7 µM in the assay on HOP-92 NSCLC; greater than 100 µM with MOLT-4 leukemia; 54.6 µM in the assay on HS 578T breast; 39.9 µM in the assay with OVCAR-4 ovarian; 3.34 µM with RXF 393 renal.

Take `COc1cc(CCc2cc(NC(=O)c3ccc(N4C[C@@H](C)N[C@@H](C)C4)cc3)n[nH]2)cc(OC)c1`: the GI50 in the assay with SN12C renal is 6.39 µM and 3.31 µM; in the assay with HOP-92 NSCLC, 1.95 µM and 1.96 µM; in the assay on MOLT-4 leukemia, 4.38 µM and 3.69 µM; in the assay with HS 578T breast it was 1.12 µM and 2.44 µM; in the assay on OVCAR-4 ovarian, > 10 µM and 3.73 µM. The TGI in the assay with SN12C renal was > 10 µM and 15.7 µM; with HOP-92 NSCLC, > 10 µM and 12.8 µM; with MOLT-4 leukemia, > 10 µM and 13.2 µM; with HS 578T breast it was > 10 µM and 14.4 µM; in the assay with OVCAR-4 ovarian, > 10 µM and 18.5 µM; in the assay on RXF 393 renal, 7.97 µM and 9.67 µM.

With `ClC(=Nc1cccc2ccccc12)N(c1ccccc1)c1ccccc1`, the TGI in the assay with SN12C renal, with HS 578T breast, in the assay with OVCAR-4 ovarian and in the assay on RXF 393 renal was greater than 100 µM in each case.

Regarding `COc1cc(O)c(C(=O)/C=C/c2ccccc2)c(OC)c1`, the TGI with SN12C renal came to 11.6 µM; in the assay on HOP-92 NSCLC, 14.4 µM; in the assay on MOLT-4 leukemia, 25 µM; with HS 578T breast, 18.2 µM; with OVCAR-4 ovarian, 26.8 µM; in the assay on RXF 393 renal it was 32.8 µM.

As to `O=[N+]([O-])c1ccc(Sc2ncccn2)c([N+](=O)[O-])c1`, the GI50 is 3.46 µM in the assay with SN12C renal; 1.15 µM in the assay with HOP-92 NSCLC; 2.32 µM in the assay with MOLT-4 leukemia; 3.83 µM in the assay with HS 578T breast; 2.96 µM in the assay on OVCAR-4 ovarian; 0.0489 µM with RXF 393 renal. The TGI with SN12C renal was determined as 13.9 µM; with HOP-92 NSCLC, 3.94 µM; in the assay with MOLT-4 leukemia, 25.4 µM; in the assay with HS 578T breast it was 18 µM; in the assay with OVCAR-4 ovarian, 13.5 µM; in the assay on RXF 393 renal, 3.23 µM.

With `O=C(Nc1ccncc1)C(=O)c1cn(S(=O)(=O)c2ccc(Br)cc2)c2ccccc12`, the GI50 is 43.5 µM with SN12C renal; 2.14 µM with HOP-92 NSCLC; greater than 100 µM in the assay with HS 578T breast; 15.1 µM with OVCAR-4 ovarian; 7.28 µM in the assay with RXF 393 renal. In addition, the TGI with SN12C renal was greater than 100 µM; in the assay on HOP-92 NSCLC it was 22.4 µM; in the assay on HS 578T breast, greater than 100 µM; in the assay with OVCAR-4 ovarian, greater than 100 µM; in the assay with RXF 393 renal, greater than 100 µM.

Take `COc1cc2c3c(n(C)c(=O)c2cc1OC)-c1cc2c(cc1/C3=C\CCCCN)OCO2`: the GI50 is 9.39 µM in the assay with SN12C renal; 43.5 µM with HOP-92 NSCLC; 5.78 µM with MOLT-4 leukemia; 17.2 µM in the assay with OVCAR-4 ovarian; 36 µM with RXF 393 renal. The TGI with SN12C renal is 24.4 µM; with HOP-92 NSCLC, greater than 100 µM; in the assay on MOLT-4 leukemia it was greater than 100 µM; in the assay on OVCAR-4 ovarian, 57.3 µM; with RXF 393 renal, 57.1 µM.
